Data published in the NIST ThermoML archive (doi:10.1016/j.jct.2017.07.016).
Numbers after ± are expanded uncertainties.

Assay: xn = mol fraction of the nth substance listed
Conditions: 96.7 kPa, Liquid; for viscosity: Capillary tube (Ostwald / Ubbelohde) method; for mass density: Vibrating tube method

CCCCCCn1cc[n+](C)c1.[Cl-] [1-hexyl-3-methylimidazolium chloride] + c1ccncc1
Conditions	mass density [kg/m3]	viscosity [mPa·s]
303.15 K, x1 = 0.145	1000.09 ± 2.1	3.442 ± 0.54
303.15 K, x1 = 0.281	1013.46 ± 2.1	12.9 ± 2
303.15 K, x1 = 0.369	1019.3 ± 2.1	27.09 ± 4.4
303.15 K, x1 = 0.477	1025.04 ± 2.1	89.47 ± 14
303.15 K, x1 = 0.608	1029.07 ± 2.1	266.74 ± 43
303.15 K, x1 = 0.778	1033.09 ± 2.1	1015.3 ± 160
303.15 K, x1 = 0.877	1034.58 ± 2.2	1617.5 ± 270
303.15 K, x1 = 1	1036.07 ± 2.2	5718.5 ± 960
308.15 K, x1 = 0.145	995.92 ± 2.1	3.081 ± 0.48
308.15 K, x1 = 0.281	1009.71 ± 2.1	11.03 ± 1.7
308.15 K, x1 = 0.369	1015.8 ± 2	22.93 ± 3.6
308.15 K, x1 = 0.477	1021.74 ± 2.1	68.74 ± 11
308.15 K, x1 = 0.608	1025.91 ± 2.1	192.89 ± 30
308.15 K, x1 = 0.778	1030.09 ± 2.1	686.42 ± 110
308.15 K, x1 = 0.877	1031.66 ± 2.2	1126 ± 180
308.15 K, x1 = 1	1033.22 ± 2.2	3430.8 ± 560
313.15 K, x1 = 0.145	991.76 ± 2.1	2.785 ± 0.44
313.15 K, x1 = 0.281	1006 ± 2	9.532 ± 1.5
313.15 K, x1 = 0.369	1012.3 ± 2	19.12 ± 3
313.15 K, x1 = 0.477	1018.45 ± 2.1	53.91 ± 8.4
313.15 K, x1 = 0.608	1022.78 ± 2.1	144.2 ± 23
313.15 K, x1 = 0.778	1027.11 ± 2.1	476.57 ± 74
313.15 K, x1 = 0.877	1028.74 ± 2.2	773.43 ± 120
313.15 K, x1 = 1	1030.38 ± 2.2	2146.1 ± 350
318.15 K, x1 = 0.145	987.59 ± 2.1	2.533 ± 0.4
318.15 K, x1 = 0.281	1002.31 ± 2	8.293 ± 1.3
318.15 K, x1 = 0.369	1008.82 ± 2	16.07 ± 2.5
318.15 K, x1 = 0.477	1015.17 ± 2	43.07 ± 6.7
318.15 K, x1 = 0.608	1019.67 ± 2.1	109.94 ± 17
318.15 K, x1 = 0.778	1024.17 ± 2.1	341.19 ± 53
318.15 K, x1 = 0.877	1025.86 ± 2.1	528.89 ± 84
318.15 K, x1 = 1	1027.56 ± 2.2	1390.4 ± 220
323.15 K, x1 = 0.145	983.43 ± 2.1	2.307 ± 0.36
323.15 K, x1 = 0.281	998.61 ± 2	7.283 ± 1.1
323.15 K, x1 = 0.369	1005.33 ± 2	13.71 ± 2.1
323.15 K, x1 = 0.477	1011.9 ± 2	35.05 ± 5.4
323.15 K, x1 = 0.608	1016.57 ± 2.1	85.19 ± 13
323.15 K, x1 = 0.778	1021.24 ± 2.1	249.82 ± 38
323.15 K, x1 = 0.877	1022.99 ± 2.1	376.53 ± 59
323.15 K, x1 = 1	1024.75 ± 2.2	928.1 ± 150
328.15 K, x1 = 0.145	979.27 ± 2.1	2.128 ± 0.33
328.15 K, x1 = 0.281	994.88 ± 2	6.442 ± 0.98
328.15 K, x1 = 0.369	1001.86 ± 2	11.78 ± 1.8
328.15 K, x1 = 0.477	1008.64 ± 2	28.97 ± 4.5
328.15 K, x1 = 0.608	1013.48 ± 2.1	67.45 ± 10
328.15 K, x1 = 0.778	1018.31 ± 2.1	185.55 ± 28
328.15 K, x1 = 0.877	1020.12 ± 2.1	273.63 ± 43
328.15 K, x1 = 1	1021.92 ± 2.2	638.79 ± 99
333.15 K, x1 = 0.145	975.09 ± 2.1	1.956 ± 0.3
333.15 K, x1 = 0.281	991.21 ± 2	5.738 ± 0.87
333.15 K, x1 = 0.369	998.39 ± 2	10.23 ± 1.6
333.15 K, x1 = 0.477	1005.4 ± 2	24.13 ± 3.7
333.15 K, x1 = 0.608	1010.39 ± 2	53.7 ± 8.2
333.15 K, x1 = 0.778	1015.38 ± 2.1	141.51 ± 21
333.15 K, x1 = 0.877	1017.26 ± 2.1	203.81 ± 31
333.15 K, x1 = 1	1019.13 ± 2.2	453.59 ± 70
338.15 K, x1 = 0.145	970.94 ± 2.1	1.793 ± 0.28
338.15 K, x1 = 0.281	987.55 ± 2	5.141 ± 0.78
338.15 K, x1 = 0.369	994.92 ± 2	8.972 ± 1.4
338.15 K, x1 = 0.477	1002.17 ± 2	20.39 ± 3.1
338.15 K, x1 = 0.608	1007.32 ± 2	43.75 ± 6.7
338.15 K, x1 = 0.778	1012.47 ± 2.1	109.4 ± 17
338.15 K, x1 = 0.877	1014.43 ± 2.1	154.83 ± 24
338.15 K, x1 = 1	1016.38 ± 2.2	327.52 ± 50
343.15 K, x1 = 0.145	966.81 ± 2.1	1.686 ± 0.26
343.15 K, x1 = 0.281	983.89 ± 2	4.636 ± 0.7
343.15 K, x1 = 0.369	991.46 ± 2	7.907 ± 1.2
343.15 K, x1 = 0.477	998.94 ± 2	17.36 ± 2.6
343.15 K, x1 = 0.608	1004.24 ± 2	35.95 ± 5.5
343.15 K, x1 = 0.778	1009.55 ± 2.1	86.53 ± 13
343.15 K, x1 = 0.877	1011.6 ± 2.1	120.81 ± 18
343.15 K, x1 = 1	1013.65 ± 2.2	243.04 ± 37
348.15 K, x1 = 0.145	962.62 ± 2.1	1.57 ± 0.24
348.15 K, x1 = 0.281	980.23 ± 2	4.198 ± 0.64
348.15 K, x1 = 0.369	988.01 ± 2	6.978 ± 1.1
348.15 K, x1 = 0.477	995.69 ± 2	14.96 ± 2.3
348.15 K, x1 = 0.608	1001.17 ± 2	30.11 ± 4.6
348.15 K, x1 = 0.778	1006.66 ± 2.1	68.87 ± 10
348.15 K, x1 = 0.877	1008.78 ± 2.1	94.01 ± 14
348.15 K, x1 = 1	1010.91 ± 2.2	183.45 ± 28
353.15 K, x1 = 0.145	958.42 ± 2.1	1.451 ± 0.22
353.15 K, x1 = 0.281	976.57 ± 2	3.822 ± 0.58
353.15 K, x1 = 0.369	984.56 ± 2	6.279 ± 0.96
353.15 K, x1 = 0.477	992.4 ± 2	13 ± 2
353.15 K, x1 = 0.608	998.08 ± 2	25.29 ± 3.8
353.15 K, x1 = 0.778	1003.77 ± 2.1	56.47 ± 8.5
353.15 K, x1 = 0.877	1005.97 ± 2.1	75.17 ± 11
353.15 K, x1 = 1	1008.18 ± 2.2	140.06 ± 21
